# ChEMBL document CHEMBL6121055, “Strategic Mutations in Designer Native Peptides Combat NLRP3 Inflammasome Activation in Neurodegenerative Disorders” (J Med Chem, 2025)
# Active and inactive are the calls of the source. No cut-off for these calls is given here. Residues, ends and D or L forms follow the SMILES beside them.
# What was measured:
# N9 [1] = test: Inhibition of NLRP3 inflammasome activation mediated pyroptosis in LPS/ATP-stimulated mouse N9 cells assessed as reduction in cell death at 100 uM measured after 24 hrs by MTT assay; assay type: cell-based
# N9 [2] = test: Inhibition of NLRP3 inflammasome activation in LPS/ATP-stimulated mouse N9 cells assessed as reduction in caspase-1 mRNA expression by measuring remaining activity at 20 uM by qRT-PCR analysis relative to control; assay type: cell-based
# [3] = Cytotoxicity against mouse N9 cells assessed as reduction in cell viability at 100 uM incubated for 24 hrs by MTT assay; assay type: toxicity, cell-based; settings: n9, 24 h
# HEK-293T = test: Cytotoxicity against HEK293T cells assessed as reduction in cell viability upto 100 uM measured after 24 hrs by MTT assay; assay type: toxicity, cell-based; settings: human
# N9 [4] = test: Inhibition of NLRP3 inflammasome activation mediated pyroptosis in LPS/ATP-stimulated mouse N9 cells assessed as reduction in cell death measured after 24 hrs by MTT assay; assay type: cell-based; settings: dose 5-30 µM
# N9 [5] = test: Inhibition of NLRP3 inflammasome activation mediated pyroptosis in LPS/ATP-stimulated mouse N9 cells assessed as reduction in number of PI-positive cells preincubated with compound and LPS for 4 hrs followed by ATP addition and measured after 24 hrs by calcein AM/PI staining based confocal imaging analysis; assay type: cell-based; settings: dose 5-20 µM, time 28.0 hrs
# [6] = Stability of compound in fetal bovine serum at 100 uM measured after 48 hrs by RP-HPLC analysis; assay type: ADME, cell-free, Bos taurus; settings: cattle
# [7] = Stability of compound in human serum at 100 uM measured over 24 hrs by RP-HPLC analysis; assay type: ADME, cell-free
# N9 [8] = test: Inhibition of NLRP3 inflammasome activation mediated pyroptosis in LPS/ATP-stimulated mouse N9 cells assessed as reduction in cell death preincubated with compound followed by LPS stimulation by MTT assay; assay type: cell-based; settings: dose 5-20 µM
# [9] = Inhibition of NLRP3 inflammasome activation in LPS/ATP-stimulated mouse N9 cells assessed as inhibition of IL-1beta mRNA expression by qRT-PCR analysis; assay type: cell-based
# [10] = Inhibition of NLRP3 inflammasome activation in LPS/ATP-stimulated mouse N9 cells assessed as inhibition of caspase-1 mRNA expression by qRT-PCR analysis; assay type: cell-based
# N9 [11] = test: Inhibition of NLRP3 inflammasome activation in LPS/ATP-stimulated mouse N9 cells assessed as reduction in IL-1beta secretion at 10 to 20 uM preincubated with LPS for 4 hrs followed by compound addition for 30 mins and measured after ATP stimulation for 45 mins by ELISA; assay type: cell-based; settings: dose 10-20 µM, time 75.0 min
# N9 [12] = test: (§1) Inhibition of NLRP3 inflammasome activation in LPS/ATP-stimulated mouse N9 cells assessed as inhibition of ASC speck formation at 20 to 30 uM preincubated with LPS for 4 hrs followed by compound addition by 30 mins and measured after 45 mins of ATP stimulation by DAPI staining based immunofluorescence analysis; assay type: cell-based; settings: dose 20-30 µM, time 75.0 min
# N9 [13] = test: Inhibition of NLRP3 inflammasome activation in LPS/ATP-stimulated mouse N9 cells assessed as inhibition of GSDMD cleavage by DAPI staining based immunofluorescence analysis; assay type: cell-based; settings: dose 10-20 µM
# N9 [14] = test: Inhibition of NLRP3 inflammasome activation mediated mitochondrial damage in LPS/ATP-stimulated mouse N9 cells assessed as normal tubular structure of mitochondria at 10 to 20 uM by […] staining based confocal microscopic analysis; settings: dose 10-20 µM
# [15] = molecular target: T1, Apoptosis-associated speck-like protein containing a CARD (Homo sapiens, UniProt Q9ULZ3); test: Binding affinity to ASC (unknown origin) assessed as shift in ASC protein band at 0.5 to 2 uM by native PAGE analysis; settings: dose 0.5-2 µM
# N9 [16] = test: Inhibition of NLRP3 inflammasome activation in LPS/ATP-stimulated mouse N9 cells assessed as increase in mitochondrial membrane potential preincubated with LPS for 4 hrs followed by compound addition for 30 mins and measured after ATP stimulation for 1 hrs by Rhodamine 123 staining based flow cytometric analysis; assay type: cell-based; settings: dose 10-30 µM, time 1.5 hrs
# [17] = molecular target: T1, Apoptosis-associated speck-like protein containing a CARD; test: Binding affinity to Alexa647-labeled ASC (unknown origin) assessed as dissociation constant incubated for 5 mins by fluorescence spectra based analysis
# [18] = molecular target: T1, Apoptosis-associated speck-like protein containing a CARD; test: Binding affinity to Alexa647-labeled ASC (unknown origin) assessed as equilibrium dissociation constant incubated for 30 mins by MST analysis
# N9 [19] = test: Inhibition of NLRP3 inflammasome activation mediated ROS production in LPS/ATP-stimulated mouse N9 cells preincubated with LPS for 4 hrs followed by compound addition for 30 mins and measured after ATP stimulation for 1 hrs by DCFDA staining based flow cytometric analysis; assay type: cell-based; settings: dose 10-30 µM, time 1.5 hrs
# N9 [20] = test: Inhibition of NLRP3 inflammasome activation mediated mitochondrial damage in LPS/ATP-stimulated mouse N9 cells assessed as reduction in mitochondrial ROS level by MitoSOX red staining based confocal microscopic analysis; assay type: cell-based; settings: dose 10-20 µM
# N9 [21] = test: Inhibition of NLRP3 inflammasome activation in LPS/ATP-stimulated mouse N9 cells assessed as increase in intracellular potassium level at 10 to 25 uM preincubated with LPS for 4 hrs followed by compound addition for 30 mins and measured after ATP stimulation for 1 hrs by ICP-OES analysis; assay type: cell-based; settings: dose 10-25 µM, time 1.5 hrs
# N9 [22] = test: Inhibition of NLRP3 inflammasome activation in LPS/ATP-stimulated mouse N9 cells assessed as increase in intracellular chloride level at 5 to 30 uM preincubated with LPS for 4 hrs followed by compound addition for 30 mins and measured after ATP stimulation for 45 mins by MQAE dye based analysis; assay type: cell-based; settings: dose 5-30 µM, time 75.0 min
# N9 [23] = test: Inhibition of NLRP3 inflammasome activation mediated in LPS/tau-stimulated mouse N9 cells assessed as increase in mitochondrial membrane potential by flow cytometric analysis; assay type: cell-based; settings: dose 5-30 µM
# N9 [24] = test: Inhibition of NLRP3 inflammasome activation mediated in LPS/amyloid-beta-stimulated mouse N9 cells assessed as increase in mitochondrial membrane potential by flow cytometric analysis; assay type: cell-based; settings: dose 5-30 µM
# N9 [25] = test: Inhibition of NLRP3 inflammasome activation mediated in LPS/tau-stimulated mouse N9 cells assessed as decrease in mitochondrial ROS generation by flow cytometric analysis; assay type: cell-based; settings: dose 5-30 µM
# N9 [26] = test: Inhibition of NLRP3 inflammasome activation mediated in LPS/amyloid-beta-stimulated mouse N9 cells assessed as decrease in mitochondrial ROS generation by flow cytometric analysis; assay type: cell-based; settings: dose 5-30 µM
# N9 [27] = test: Inhibition of NLRP3 inflammasome activation mediated in LPS/alpha-synuclein-stimulated mouse N9 cells assessed as decrease in mitochondrial ROS generation by flow cytometric analysis; assay type: cell-based; settings: dose 5-30 µM
# N9 [28] = test: Inhibition of NLRP3 inflammasome activation in LPS/tau-stimulated mouse N9 cells assessed as reduction in IL-1beta secretion at 10 to 20 uM preincubated with LPS for 4 hrs followed by compound addition for 30 mins and measured after tau stimulation for 24 hrs by ELISA; assay type: cell-based; settings: dose 10-20 µM, time 24.5 hrs
# N9 [29] = test: as §1, with “LPS/amyloid-beta-stimulated” for “LPS/ATP-stimulated”, “formation” for “formation at 20 to 30 uM”, “16 hrs” for “45 mins”, “amyloid-beta” for “ATP”; assay type: cell-based; settings: dose 10-20 µM, time 16.5 hrs
# N9 [30] = test: (§2) Inhibition of NLRP3 inflammasome activation in LPS/tau-stimulated mouse N9 cells assessed as inhibition of ASC speck formation preincubated with LPS for 4 hrs followed by compound addition by 30 mins and measured after 24 hrs of tau stimulation by DAPI staining based immunofluorescence analysis; assay type: cell-based; settings: dose 10-20 µM, time 24.5 hrs
# N9 [31] = test: as §2, with “LPS/alpha-synuclein-stimulated” for “LPS/tau-stimulated”, “alpha-synuclein” for “tau”; assay type: cell-based; settings: dose 10-20 µM, time 24.5 hrs
# T1 sequence (Q9ULZ3 whole entry): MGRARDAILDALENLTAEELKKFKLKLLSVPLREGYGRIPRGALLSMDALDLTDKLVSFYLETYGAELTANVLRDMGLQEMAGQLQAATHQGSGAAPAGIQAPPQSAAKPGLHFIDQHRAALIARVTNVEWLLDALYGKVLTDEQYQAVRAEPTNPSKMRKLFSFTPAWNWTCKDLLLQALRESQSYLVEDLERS
compound,measurement,setting,value
CC[C@H](C)[C@H](NC(=O)[C@H](C)NC(=O)[C@H](C)NC(=O)[C@H](CC(C)C)NC(=O)[C@@H](NC(=O)[C@H](Cc1c[nH]c2ccccc12)NC(=O)[C@@H](N)C(C)C)[C@@H](C)CC)C(=O)N[C@@H](CC(N)=O)C(=O)N[C@@H](CCCNC(=N)N)C(=O)N[C@@H](CCCNC(=N)N)C(=O)O (H-VWILAAINRR-OH),inhibition,N9 [1],Active
same,Activity,N9 [2],15%
same,Activity,[3],Non-toxic
same,Activity,HEK-293T,Non-toxic
same,inhibition,N9 [4],Dose-dependent-effect
same,inhibition,N9 [5],Dose-dependent-effect
same,Stability,[6],Stable
same,Stability,[7],Stable
same,inhibition,N9 [8],Dose-dependent-effect
same,IC50,[9],2570 nM
same,IC50,[10],16200 nM
same,inhibition,N9 [11],Active
same,inhibition,N9 [12],Active
same,inhibition,N9 [13],Dose-dependent-effect
same,inhibition,N9 [14],Active
same,Activity,[15],Active
same,inhibition,N9 [16],Dose-dependent-effect
same,Kd,[17],58 nM
same,Kd,[18],~149 nM
same,inhibition,N9 [19],Dose-dependent-effect
same,inhibition,N9 [20],Dose-dependent-effect
same,inhibition,N9 [21],Active
same,inhibition,N9 [22],Active
same,inhibition,N9 [23],Dose-dependent-effect
same,inhibition,N9 [24],Dose-dependent-effect
same,inhibition,N9 [25],Dose-dependent-effect
same,inhibition,N9 [26],Dose-dependent-effect
same,inhibition,N9 [27],Dose-dependent-effect
same,inhibition,N9 [28],Dose-dependent-effect
same,inhibition,N9 [29],Dose-dependent-effect
same,inhibition,N9 [30],Dose-dependent-effect
same,inhibition,N9 [31],Dose-dependent-effect
